Test results as given in patent US12516237B2, “Alkyl lactone-derived corrosion inhibitors” (ChampionX LLC, priority 2018, dated 2026).

Assay: Bubble cell test: corrosion rate of steel electrode by aqueous linear polarization resistance (LPR) in CO2-saturated synthetic oilfield brine/oil
Details: 15 h after dosing, 80° C., 80% water cut, CO2 purge, C1018, samples 10 ppm of 20% active + 2% 2ME; for % Protection (corrosion inhibition): relative to baseline corrosion rate before dosing, comparatives 20 ppm of 10% active + 1% 2ME; for Inhibited Corrosion Rate: comparatives 20 ppm of 10% active + 1% 2ME (same active concentration)
Source text: The bubble cell test was used to investigate the effectiveness of alkyl lactone-derived hydroxyamides as corrosion inhibitors. This test measures the corrosion rate of a steel electrode by aqueous linear polarization resistance (LPR). The steel electrodes (C1018) were placed in a bath of synthetic oilfield brine which was deaerated with carbon dioxide. The corrosion rate of the electrode was compared in the absence or presence of an alkyl lactone-derived hydroxyamide.
The synthetic oilfield brine contained about 3 wt % of sodium chloride, and the oil included a synthetic oil of INT-200 and xylene. The ratio of water to oil was 80:20. The oil/brine was placed into bubble cells and purged with CO2. The oil/brine was continually purged with CO2 to saturate the oil/brine prior to starting the test. The test cells were blanketed with CO2 throughout the duration of the test to maintain saturation. The bubble cells were stirred at 100 revolutions per minute (rpm) for the duration of the test to maintain thermal equilibrium at 80° C. The electrodes were all cleaned and polished prior to testing.
After about 3 hours of pre-corrosion time (i.e. without a corrosion inhibitor) 10 ppm of a 20% active of an alkyl-lactone chemistry (shown in Table 2 and prepared as described in Example 1) with 2% 2-mercaptoethanol (2ME) solvent was added. Comparison with a benzyl ammonium chloride quarternary chemistry and imidazoline chemistry was made at the same active concentration as the alkyl lactone together with 2ME (at the same dose based on chemistry and 2ME activity—i.e. these were dosed at twice the concentration because the active and 2ME in the test blend was half).

SMILES | % Protection (corrosion inhibition) [%] | Inhibited Corrosion Rate [mpy]
CCCCCCCC(O)CCC(=O)NCCCN(C)C (stereo not drawn) [Sample 1, γ-Undecalactone/DMAPA] | 37 | 181
CCCCCCC(O)CCCC(=O)NCCCN(C)C (stereo not drawn) [Sample 2, δ-Undecalactone/DMAPA] | 43 | 151
CCCCC(O)CCC(=O)NCCCN(C)C (stereo not drawn) [Sample 3, γ-Octalactone/DMAPA] | 31 | 177
